Source: ChEMBL document CHEMBL4507293 (2021)

Key:
[1] = biological target: 5-hydroxytryptamine receptor 7 (Homo sapiens, UniProt P34969); assay: GPCRScan assay: inhibition of 5-HT7A; design: radioligand conc. used [nm] 5.0 – 6.0, parental cells Stable HEK
[2] = biological target: Sodium-dependent dopamine transporter (Homo sapiens) (UniProt Q01959); conditions: Compound concentration 10.0 uM
Rattus norvegicus [3] = species: Rattus norvegicus; assay: Testosterone Eurofins-Panlabs radioligand binding assay; design: ligand concentration 1.5 nM; conditions: Compound concentration 10.0 uM
[4] = biological target: Glutamate receptor ionotropic, kainate (Rattus norvegicus) (UniProt P22756+Q01812+P42260+P42264+Q63273); assay: Inhibition of Glutamate, Kainate at 10 µM in the Eurofins-Panlabs radioligand binding assay (Eurofins_assay_232700); conditions: Compound concentration 10.0 uM
Rattus norvegicus [5] = species: Rattus norvegicus; assay: Inhibition of Glutamate, NMDA, Phencyclidine at 10 µM in the Eurofins-Panlabs radioligand binding assay (Eurofins_assay_233000); type: protein-complex assay; conditions: Compound concentration 10.0 uM
[6] = biological target: Platelet-activating factor receptor (Homo sapiens) (UniProt P25105); assay: Inhibition of Platelet Activating Factor (PAF) at 10 µM in the Eurofins-Panlabs radioligand binding assay (Eurofins_assay_265010); conditions: Compound concentration 10.0 uM
Chain of Platelet-activating factor receptor (Homo sapiens) (P25105 whole entry): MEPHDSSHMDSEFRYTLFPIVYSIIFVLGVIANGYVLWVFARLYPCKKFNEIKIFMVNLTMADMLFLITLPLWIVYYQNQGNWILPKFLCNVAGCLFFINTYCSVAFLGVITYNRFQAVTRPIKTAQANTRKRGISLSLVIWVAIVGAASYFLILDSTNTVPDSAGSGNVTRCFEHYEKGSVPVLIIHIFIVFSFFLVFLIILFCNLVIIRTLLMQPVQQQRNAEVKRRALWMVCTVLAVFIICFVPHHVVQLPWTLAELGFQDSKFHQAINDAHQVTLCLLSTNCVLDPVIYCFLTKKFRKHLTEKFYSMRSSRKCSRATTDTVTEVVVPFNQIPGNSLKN

[7] = biological target: Phosphodiesterase 3 (Homo sapiens) (UniProt Q14432+Q13370); assay: Inhibition of Phosphodiesterase PDE3 at compound concentration of 10.0 uM in the Eurofins-Panlabs enzyme assay (Eurofins_assay_152000); type: protein assay; design: substrate with concentration 1.01 uM [3H] cAMP + cAMP, incubation time 20 min, incubation temperature 25 C; conditions: Compound concentration 10.0 uM
[8] = biological target: Mitogen-activated protein kinase 3 (Homo sapiens) (UniProt P27361); assay: Inhibition of Protein Serine/Threonine Kinase, MAPK3 (ERK1) at 10 µM in the Eurofins-Panlabs enzyme assay (Eurofins_assay_171000); conditions: Compound concentration 10.0 uM
Chain of Mitogen-activated protein kinase 3 (Homo sapiens) (P27361 whole entry): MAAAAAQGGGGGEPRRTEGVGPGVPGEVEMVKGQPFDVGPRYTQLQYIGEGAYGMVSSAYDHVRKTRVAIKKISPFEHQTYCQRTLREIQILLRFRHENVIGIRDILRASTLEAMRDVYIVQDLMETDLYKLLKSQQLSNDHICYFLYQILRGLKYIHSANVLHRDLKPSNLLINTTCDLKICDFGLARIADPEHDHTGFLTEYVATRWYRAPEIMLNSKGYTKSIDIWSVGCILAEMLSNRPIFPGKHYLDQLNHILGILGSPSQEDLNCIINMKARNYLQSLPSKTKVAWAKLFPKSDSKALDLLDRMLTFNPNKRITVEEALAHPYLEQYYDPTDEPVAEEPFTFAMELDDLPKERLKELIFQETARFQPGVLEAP

[9] = biological target: T1, Alpha-2C adrenergic receptor (Homo sapiens) (UniProt P18825); assay: Adrenergic alpha2C Eurofins-Panlabs radioligand binding assay; design: ligand concentration 1 nM, non-specific ligand with concentration 10 µM WB-4101, incubation time 60 min, incubation temperature 25 °C; conditions: Compound concentration 10.0 uM
T1 sequence (whole entry): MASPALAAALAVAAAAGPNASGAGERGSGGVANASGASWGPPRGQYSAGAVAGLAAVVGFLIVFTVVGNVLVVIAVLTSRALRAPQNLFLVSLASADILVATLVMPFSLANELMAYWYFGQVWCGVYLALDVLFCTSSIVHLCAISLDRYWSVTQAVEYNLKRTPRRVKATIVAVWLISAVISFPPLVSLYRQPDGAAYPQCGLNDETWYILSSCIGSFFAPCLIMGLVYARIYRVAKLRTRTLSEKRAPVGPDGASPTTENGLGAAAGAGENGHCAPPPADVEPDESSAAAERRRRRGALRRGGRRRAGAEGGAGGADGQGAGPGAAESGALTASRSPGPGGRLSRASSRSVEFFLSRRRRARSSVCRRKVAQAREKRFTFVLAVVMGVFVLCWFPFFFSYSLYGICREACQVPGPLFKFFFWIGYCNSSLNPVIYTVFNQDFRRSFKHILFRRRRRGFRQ

[10] = Inhibition of Atrial Natriuretic Factor (ANF) at 10 µM in the Eurofins-Panlabs radioligand binding assay (Eurofins_assay_211000); conditions: Cavia porcellus; Compound concentration 10 uM; Assay protocol publication PMID: 2408776; Detection method Radioligand Binding; Incubation temperature 4 °C; Incubation time 60 min; Ligand Bmax 0.013 pM/ mg protein; Ligand Kd 0.14 nM; Ligand [125I] ANF (rat); Ligand concentration 0.016 nM; Ligand specific binding 78 %; Non-specific ligand with concentration 0.1 µM ANF (rat); Reference compound ANF (rat); Source of …
[11] = biological target: C-X-C chemokine receptor type 2 (Homo sapiens) (UniProt P25025); assay: Inhibition of Chemokine CXCR2 (IL-8RB) at 10 µM in the Eurofins-Panlabs radioligand binding assay (Eurofins_assay_244500); conditions: Compound concentration 10.0 uM
Chain of C-X-C chemokine receptor type 2 (Homo sapiens) (P25025 whole entry): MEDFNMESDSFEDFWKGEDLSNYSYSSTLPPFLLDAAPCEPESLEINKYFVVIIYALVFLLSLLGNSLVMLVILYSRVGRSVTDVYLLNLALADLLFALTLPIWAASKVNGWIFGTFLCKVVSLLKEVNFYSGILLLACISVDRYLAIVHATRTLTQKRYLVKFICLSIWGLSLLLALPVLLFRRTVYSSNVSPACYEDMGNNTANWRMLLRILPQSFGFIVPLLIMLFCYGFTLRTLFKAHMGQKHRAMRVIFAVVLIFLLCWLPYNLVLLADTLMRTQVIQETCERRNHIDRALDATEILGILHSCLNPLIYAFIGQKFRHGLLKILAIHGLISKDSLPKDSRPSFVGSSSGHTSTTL

[12] = biological target: Histamine H3 receptor (Homo sapiens) (UniProt Q9Y5N1); assay: Histamine H3 Eurofins-Panlabs radioligand binding assay; conditions: Compound concentration 10.0 uM
[13] = biological target: Cathepsin G (Homo sapiens) (UniProt P08311); assay: Inhibition of Peptidase, CTSG (Cathepsin G) at 10 µM in the Eurofins-Panlabs enzyme assay (Eurofins_assay_112510); design: substrate with concentration; conditions: Compound concentration 10.0 uM
Chain of Cathepsin G (Homo sapiens) (P08311 whole entry): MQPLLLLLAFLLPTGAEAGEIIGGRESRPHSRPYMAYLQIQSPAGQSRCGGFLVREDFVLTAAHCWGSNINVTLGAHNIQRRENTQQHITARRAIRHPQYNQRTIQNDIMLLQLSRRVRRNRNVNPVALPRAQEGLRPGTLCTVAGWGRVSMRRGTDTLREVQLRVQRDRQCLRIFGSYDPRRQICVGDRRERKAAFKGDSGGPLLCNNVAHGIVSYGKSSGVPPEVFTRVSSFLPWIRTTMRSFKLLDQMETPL

[14] = biological target: C-X-C chemokine receptor type 4 (Homo sapiens) (UniProt P61073); assay: Chemokine CXCR4 Eurofins-Panlabs radioligand binding assay; design: ligand concentration 0.03 nM; conditions: Compound concentration 10.0 uM
Chain of C-X-C chemokine receptor type 4 (Homo sapiens) (P61073 whole entry): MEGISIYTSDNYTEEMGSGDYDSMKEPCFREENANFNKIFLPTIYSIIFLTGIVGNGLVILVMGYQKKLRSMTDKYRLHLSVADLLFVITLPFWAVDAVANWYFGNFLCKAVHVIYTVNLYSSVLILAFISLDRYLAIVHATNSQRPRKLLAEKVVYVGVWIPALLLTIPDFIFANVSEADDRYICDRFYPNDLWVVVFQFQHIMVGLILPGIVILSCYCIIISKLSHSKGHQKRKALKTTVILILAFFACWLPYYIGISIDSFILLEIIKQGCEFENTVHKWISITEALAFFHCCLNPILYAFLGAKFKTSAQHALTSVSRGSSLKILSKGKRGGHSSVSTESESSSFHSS

[15] = biological target: Peroxisome proliferator-activated receptor alpha (Homo sapiens) (UniProt Q07869); assay: PPARalpha Eurofins-Panlabs radioligand binding assay; conditions: Compound concentration 10.0 uM
Chain of Peroxisome proliferator-activated receptor alpha (Homo sapiens) (Q07869 whole entry): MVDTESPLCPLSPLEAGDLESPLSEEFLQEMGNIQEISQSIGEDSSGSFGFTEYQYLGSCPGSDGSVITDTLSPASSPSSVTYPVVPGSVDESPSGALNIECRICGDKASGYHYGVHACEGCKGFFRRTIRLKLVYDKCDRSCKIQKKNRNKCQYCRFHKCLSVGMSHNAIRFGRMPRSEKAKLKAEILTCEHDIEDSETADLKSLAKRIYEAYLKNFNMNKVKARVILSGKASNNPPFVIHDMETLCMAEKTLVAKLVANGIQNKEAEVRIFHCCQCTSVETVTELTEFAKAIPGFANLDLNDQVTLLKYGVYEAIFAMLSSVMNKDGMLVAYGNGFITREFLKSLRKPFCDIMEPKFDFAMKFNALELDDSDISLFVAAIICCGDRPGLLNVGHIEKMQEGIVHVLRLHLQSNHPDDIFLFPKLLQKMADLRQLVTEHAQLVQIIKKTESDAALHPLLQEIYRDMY

[16] = biological target: Retinoic acid receptor RXR-alpha (Homo sapiens) (UniProt P19793); assay: Retinoid X Receptor RXRalpha Eurofins-Panlabs radioligand binding assay; conditions: Compound concentration 10.0 uM
Chain of Retinoic acid receptor RXR-alpha (Homo sapiens) (P19793 whole entry): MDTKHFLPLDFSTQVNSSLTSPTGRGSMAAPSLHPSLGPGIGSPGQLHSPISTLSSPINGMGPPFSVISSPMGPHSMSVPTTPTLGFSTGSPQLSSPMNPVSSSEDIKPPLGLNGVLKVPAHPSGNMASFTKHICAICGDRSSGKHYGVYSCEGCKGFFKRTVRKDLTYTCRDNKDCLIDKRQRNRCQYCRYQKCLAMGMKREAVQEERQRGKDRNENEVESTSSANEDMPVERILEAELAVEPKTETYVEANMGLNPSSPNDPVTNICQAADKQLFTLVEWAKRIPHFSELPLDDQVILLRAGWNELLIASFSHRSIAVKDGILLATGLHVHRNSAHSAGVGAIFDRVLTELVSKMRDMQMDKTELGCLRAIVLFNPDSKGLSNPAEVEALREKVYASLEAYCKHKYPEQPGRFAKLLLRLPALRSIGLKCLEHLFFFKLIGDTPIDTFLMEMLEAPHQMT

[17] = biological target: Epidermal growth factor receptor (Homo sapiens) (UniProt P00533); assay: Protein Tyrosine Kinase, EGF Receptor Eurofins-Panlabs enzyme assay; design: substrate with concentration 10 µg/mL Poly(Glu:Tyr), incubation time 60 min, incubation temperature 25 °C; conditions: Compound concentration 10.0 uM
Chain of Epidermal growth factor receptor (Homo sapiens) (P00533 whole entry): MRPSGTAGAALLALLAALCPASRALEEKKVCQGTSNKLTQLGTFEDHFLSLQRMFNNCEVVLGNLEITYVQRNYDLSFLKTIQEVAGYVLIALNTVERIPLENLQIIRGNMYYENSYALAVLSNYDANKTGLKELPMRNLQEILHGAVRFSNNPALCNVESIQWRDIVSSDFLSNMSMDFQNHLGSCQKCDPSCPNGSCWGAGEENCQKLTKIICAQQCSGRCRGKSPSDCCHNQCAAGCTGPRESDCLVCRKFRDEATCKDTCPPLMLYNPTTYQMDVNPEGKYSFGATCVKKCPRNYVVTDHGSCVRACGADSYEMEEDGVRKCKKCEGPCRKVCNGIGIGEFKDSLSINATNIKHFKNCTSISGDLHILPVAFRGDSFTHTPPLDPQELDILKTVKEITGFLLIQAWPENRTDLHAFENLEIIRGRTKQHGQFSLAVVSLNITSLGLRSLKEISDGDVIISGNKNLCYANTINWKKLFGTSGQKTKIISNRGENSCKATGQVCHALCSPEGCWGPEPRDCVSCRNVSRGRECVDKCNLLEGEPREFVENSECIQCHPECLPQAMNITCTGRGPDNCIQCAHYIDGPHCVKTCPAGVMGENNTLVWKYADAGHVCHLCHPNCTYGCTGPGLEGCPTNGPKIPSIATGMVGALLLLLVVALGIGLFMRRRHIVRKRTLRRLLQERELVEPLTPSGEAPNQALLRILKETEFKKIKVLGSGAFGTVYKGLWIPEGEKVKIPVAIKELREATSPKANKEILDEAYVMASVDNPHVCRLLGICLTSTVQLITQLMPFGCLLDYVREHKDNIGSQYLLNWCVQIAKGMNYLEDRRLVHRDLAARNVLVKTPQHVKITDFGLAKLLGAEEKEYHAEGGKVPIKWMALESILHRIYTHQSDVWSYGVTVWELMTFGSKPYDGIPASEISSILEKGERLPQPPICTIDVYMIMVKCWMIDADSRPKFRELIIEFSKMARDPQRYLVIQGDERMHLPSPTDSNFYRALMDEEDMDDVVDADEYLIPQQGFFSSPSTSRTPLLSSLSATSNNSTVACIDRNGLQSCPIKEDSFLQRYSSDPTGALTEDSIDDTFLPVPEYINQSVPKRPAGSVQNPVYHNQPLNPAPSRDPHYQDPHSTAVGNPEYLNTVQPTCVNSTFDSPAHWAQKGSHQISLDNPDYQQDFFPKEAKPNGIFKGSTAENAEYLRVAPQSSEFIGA

[18] = biological target: Glutamate NMDA receptor; GRIN1/GRIN2A (Homo sapiens) (UniProt Q05586+Q12879); assay: NMDA-NR1a/NR2a Eurofins-Panlabs radioligand binding assay; type: protein-complex assay; conditions: Compound concentration 10.0 uM
[19] = biological target: T2, Muscarinic acetylcholine receptor M1 (Homo sapiens) (UniProt P11229); conditions: Compound concentration 10.0 uM
T2 sequence (whole entry): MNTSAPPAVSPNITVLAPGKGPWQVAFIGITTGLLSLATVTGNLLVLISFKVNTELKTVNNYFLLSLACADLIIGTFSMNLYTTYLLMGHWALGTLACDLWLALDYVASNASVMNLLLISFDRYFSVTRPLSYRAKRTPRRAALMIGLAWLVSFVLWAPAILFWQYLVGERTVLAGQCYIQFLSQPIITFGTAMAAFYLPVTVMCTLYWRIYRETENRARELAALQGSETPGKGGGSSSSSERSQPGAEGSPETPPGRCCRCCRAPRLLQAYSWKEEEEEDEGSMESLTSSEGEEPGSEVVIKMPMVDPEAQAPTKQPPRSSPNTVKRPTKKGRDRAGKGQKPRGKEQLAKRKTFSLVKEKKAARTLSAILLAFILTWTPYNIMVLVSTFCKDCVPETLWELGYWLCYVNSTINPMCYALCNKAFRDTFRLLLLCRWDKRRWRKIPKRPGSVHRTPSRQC

[20] = biological target: Purinergic P2Y (Rattus norvegicus) (UniProt O35811+Q9EPX4+P49651+Q63371+P41232+O35881+Q6GUG4); conditions: Compound concentration 10.0 uM
[21] = biological target: T3, Alpha-2B adrenergic receptor (Homo sapiens) (UniProt P18089); conditions: Compound concentration 10.0 uM
T3 sequence (whole entry): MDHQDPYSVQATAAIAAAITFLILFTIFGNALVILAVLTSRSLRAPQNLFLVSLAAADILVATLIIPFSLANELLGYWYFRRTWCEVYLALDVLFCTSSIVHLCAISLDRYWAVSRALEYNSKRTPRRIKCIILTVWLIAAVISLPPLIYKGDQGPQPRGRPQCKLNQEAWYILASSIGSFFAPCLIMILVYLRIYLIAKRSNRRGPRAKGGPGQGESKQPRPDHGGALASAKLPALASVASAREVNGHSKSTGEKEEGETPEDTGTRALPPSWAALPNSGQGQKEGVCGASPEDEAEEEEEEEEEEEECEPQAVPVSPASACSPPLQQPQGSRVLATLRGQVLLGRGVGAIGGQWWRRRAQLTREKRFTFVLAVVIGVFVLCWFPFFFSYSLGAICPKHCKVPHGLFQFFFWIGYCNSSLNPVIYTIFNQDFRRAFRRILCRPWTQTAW

Chain of Sodium-dependent dopamine transporter (Homo sapiens) (Q01959 whole entry): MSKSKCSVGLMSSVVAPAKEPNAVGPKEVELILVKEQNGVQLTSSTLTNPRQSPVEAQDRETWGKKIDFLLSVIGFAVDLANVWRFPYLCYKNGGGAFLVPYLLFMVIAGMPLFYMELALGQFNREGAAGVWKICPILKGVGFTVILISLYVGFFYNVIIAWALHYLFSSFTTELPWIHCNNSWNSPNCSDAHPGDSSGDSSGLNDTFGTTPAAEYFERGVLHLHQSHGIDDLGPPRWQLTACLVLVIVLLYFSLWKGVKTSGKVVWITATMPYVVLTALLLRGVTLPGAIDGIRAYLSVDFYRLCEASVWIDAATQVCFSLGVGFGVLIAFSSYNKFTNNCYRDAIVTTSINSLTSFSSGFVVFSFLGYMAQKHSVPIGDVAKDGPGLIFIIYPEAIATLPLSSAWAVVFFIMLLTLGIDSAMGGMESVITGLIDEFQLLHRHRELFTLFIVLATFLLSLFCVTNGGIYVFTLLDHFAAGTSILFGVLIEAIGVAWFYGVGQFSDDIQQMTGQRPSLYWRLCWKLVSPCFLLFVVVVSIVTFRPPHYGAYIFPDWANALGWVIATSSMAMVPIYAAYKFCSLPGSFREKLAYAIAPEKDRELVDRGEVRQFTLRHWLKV
Chain of 5-hydroxytryptamine receptor 7 (P34969 whole entry): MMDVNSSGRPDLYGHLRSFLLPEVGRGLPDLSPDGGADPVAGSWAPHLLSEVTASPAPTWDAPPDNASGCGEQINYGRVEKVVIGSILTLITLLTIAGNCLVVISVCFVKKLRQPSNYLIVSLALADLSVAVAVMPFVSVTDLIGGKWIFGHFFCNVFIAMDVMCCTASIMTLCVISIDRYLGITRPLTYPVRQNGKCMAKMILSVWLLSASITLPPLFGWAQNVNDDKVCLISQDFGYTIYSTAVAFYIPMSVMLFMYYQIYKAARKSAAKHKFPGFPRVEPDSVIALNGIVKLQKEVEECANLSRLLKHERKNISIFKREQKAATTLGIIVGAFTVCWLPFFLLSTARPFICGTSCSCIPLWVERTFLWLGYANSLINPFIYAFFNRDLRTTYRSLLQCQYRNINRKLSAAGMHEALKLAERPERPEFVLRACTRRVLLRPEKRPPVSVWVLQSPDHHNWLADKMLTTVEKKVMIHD

CC(C)CC(=O)N1CCc2nc(-c3ccc(Br)cc3)nc(N(C)Cc3ccccc3)c2C1 [THPP-1-NC]
Ki [1]: 578 nM | inhibition [2]: 15.3%

COCCOc1nc(-c2ccc(Cl)nc2)nc2c1CN(C(=O)c1ncn3ccccc13)CC2 [THPP-1]
inhibition (Rattus norvegicus [3]): 7% | inhibition [4]: 9% | inhibition (Rattus norvegicus [5]): -10% | inhibition [6]: -4% | inhibition [7]: 45% | inhibition [8]: 6% | inhibition [9]: 3% | inhibition at 10 µM [10]: 0% (not active) | inhibition [11]: -4% | inhibition [12]: -1% | inhibition [13]: 17% | inhibition [14]: 4% | inhibition [15]: 4% | inhibition [16]: -4% | inhibition [17]: 6% | inhibition [18]: -7% | inhibition [19]: 6% | inhibition [20]: 5% | inhibition [21]: 1%
